Source: US20060239926A1, “Specific high-relaxivity compounds” (GUERBET, priority 2003, published 2006)

Experiments:
[1] = molecular target: T1, MMP-2 (Homo sapiens, UniProt P08253); test: In vitro MMP-inhibiting activity (fluorimetry), MMP-2; type: biochemical
T1 sequence (P08253 110-660): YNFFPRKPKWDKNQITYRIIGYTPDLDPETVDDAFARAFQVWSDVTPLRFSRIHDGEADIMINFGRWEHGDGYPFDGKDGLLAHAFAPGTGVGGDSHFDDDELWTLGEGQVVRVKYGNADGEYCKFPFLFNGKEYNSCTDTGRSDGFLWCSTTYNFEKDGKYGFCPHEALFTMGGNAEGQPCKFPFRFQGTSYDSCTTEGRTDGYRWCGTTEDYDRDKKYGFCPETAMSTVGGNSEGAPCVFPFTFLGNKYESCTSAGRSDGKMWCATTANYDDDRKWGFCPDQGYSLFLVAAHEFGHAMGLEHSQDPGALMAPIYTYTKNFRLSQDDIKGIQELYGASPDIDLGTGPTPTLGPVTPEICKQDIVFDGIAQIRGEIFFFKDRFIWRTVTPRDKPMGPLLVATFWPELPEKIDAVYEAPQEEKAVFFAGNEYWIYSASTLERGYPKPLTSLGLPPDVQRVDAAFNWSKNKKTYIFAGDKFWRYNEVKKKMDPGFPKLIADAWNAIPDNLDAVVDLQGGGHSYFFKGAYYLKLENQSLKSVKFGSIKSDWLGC
Protocol: The inventors also tested the in vitro activity in order to evaluate the inhibitory activity of P947 and of the tetrapeptide on MMP-2, a gelatinase A expressed constitutively in the vascular wall and overexpressed in the case of inflammation.
Control: commercial tetrapeptide (called peptide B in the study): 4-Abz-Gly-Pro-Dleu-Dala-NHOH (Bachem); inhibitor of MMP-1, MMP-2 and MMP-3.
The detailed protocol is as follows for MMP2s: the product tested is added to a 50 mM. Tris-HCl buffer (pH 7.5) containing 150 mM NaCl, 10 mM […], 0.02% NaN3, 0.05% Brij®35 and 0.35 μM MMP-2 activated by incubation for 120 minutes at 37° C. with 6.67 mM APMA. The fluorescence intensity is measured after preincubation for 30 minutes at 37° C., at lambda ex=340 nm and lambda em=405 nm. The enzyme reaction is initiated by adding 6 μM NFF-2, with subsequent incubation for 90 minutes at 37° C.

[2] = molecular target: T1, MMP-2; conditions: read-out: IC50 on MMP-2 (literature); cited from earlier work
[3] = molecular target: T2, human MMP-1 (Homo sapiens, UniProt P03956); conditions: value of the peptide component, not of the Gd conjugate, read-out: IC50 OF THE PEPTIDE (LITERATURE); cited from earlier work
T2 sequence (P03956 100-469): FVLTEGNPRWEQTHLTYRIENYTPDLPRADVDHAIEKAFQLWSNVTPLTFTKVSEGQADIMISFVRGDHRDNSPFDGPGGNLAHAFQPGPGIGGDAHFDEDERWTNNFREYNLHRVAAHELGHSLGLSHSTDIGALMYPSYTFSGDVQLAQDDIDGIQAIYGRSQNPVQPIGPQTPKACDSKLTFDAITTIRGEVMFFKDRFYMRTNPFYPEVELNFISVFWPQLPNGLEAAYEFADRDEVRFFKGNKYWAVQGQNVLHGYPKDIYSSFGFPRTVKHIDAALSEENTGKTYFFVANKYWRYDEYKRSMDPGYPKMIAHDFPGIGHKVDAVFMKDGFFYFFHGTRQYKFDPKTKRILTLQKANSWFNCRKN

[4] = molecular target: T2, human MMP-1; test: In vitro MMP-inhibiting activity (fluorimetry), MMP-1; type: biochemical
Protocol: The inventors assayed the in vitro activity of the P947 and P967 gadolinium-chelate contrast products functionalized with matrix metalloproteases inhibitors (MMPs), on human MMP-1 and MMP-3. As regards the affinity of the biovector component, on the receptor, the controls were two peptides:
More precisely, the in vitro MMP-inhibiting activity was evaluated in the following way: • 1. Incubation of the test product in the presence of the MMP enzyme, at 37° C., for a defined period of time, and then measurement of the fluorescence of the medium (t=0). • 2. Induction of the enzyme reaction by addition of the substrate to (which becomes fluorescent when it is cleaved by the enzyme), and then incubation at 37° C. for 40 min. A second measurement of fluorescence is then taken (t=40). • 3. The activity of the MMP enzyme is determined by subtraction of the signal measured by fluorimetry: (t=40)-(t=0). • 4. The results are expressed as percentage inhibition of the activity of the control enzyme. • 5. The standard inhibitory product is TIMP-1.
The products were tested in duplicate, at 10^−5, 10^−7 and 10^−9 M with respect to peptides. Those which contain no peptides were treated in a manner similar to the corresponding functionalized contrast products.

[5] = system: THP-1 cells; test: Uptake of PS-NBD by THP-1 cells, flow cytometry; type: cell-based, human; conditions: PS-NBD range 13, 32 and 64 μM; 24 hours
Protocol: In vitro validation was performed by comparing the rate of uptake by activated macrophages versus non-activated macrophages (activated THP-1 cells are positive for the PS receptor). […] PS-NBD is a phosphatidylserine comprising only one fatty chain, the other arm linked to the serine head supporting the fluorescence marker NBD.
The THP-1 cell line is a human monocyte line which, after activation, differentiates into macrophages and expresses the phosphatidylserine receptor. These cells were cultured in the presence of phosphatidylserine-NBD.
Protocol with Flow Cytometry • 2 ml of a suspension of THP-1 at 10^6 C/ml are seeded in a 6-well plate. • The THP-1 are activated for 24 hours with 50 nmol/l of PMA. • […] of each of the dilutions (from the solution at 6.25 mmol/l) are incubated for 24 hours. • The excess product is suctioned off. • The cell layer is washed with 1 ml of RPMI without phenol red. • The excess is suctioned off. • The cells are resuspended in 1 ml of PBS (detachment of the cells using a flow of medium over the layer then scraping of the cells which have not detached, using a scraper). • The cells are kept in the dark at 4° C. while awaiting reading. • The fluorescence is read in FL1 at 525 nm by flow cytometry.
PS-NBD range tested: 13, 32 and 64 μM
Groups tested: THP-1/PMA, THP-1/PS-NBD at 5 μM.

[6] = system: macrophages located in the plaques; test: Ex vivo distribution of PS-NBD in atheroma plaques of ApoE-KO mice; type: cell-based
Protocol: For this, samples of heart comprising valves and aortic arch and also the iliac bifurcation are incubated in the presence of PS-NBD.

[7] = system: primary macrophages from WHHL rabbits; test: Ex vivo incubation of WHHL rabbit macrophages/aortic tissues with PS-NBD, fluorescence microscopy; type: cell-based; conditions: incubated 18 h ex vivo; 35 μM
Protocol: In fact macrophages were isolated from aortic arch and mesenteric lymph node samples, and then incubated for 18 h ex vivo in the presence of PS-NBD. […] More precisely, the rabbit was subjected to exsanguinating perfusion with heparinized newborn calf serum before being sacrificed. The aortic arch, the thoracic aorta and the abdominal aorta were removed. The tissue removed were incubated for 18 hours in cell culture medium to which PS-NBD had been added and were then mounted in frozen blocks in order for histological sections to be cut. Certain sections were observed by fluorescence microscopy and others were immunolabelled using an anti-rabbit macrophage antibody (RAM 11).
• Incubation of the samples at 37° C. in 24-well plates in the presence of PS-NBD at 35 μM for 18 hours. • 2 rinses of the arteries in PBS. • Embedding of each piece of aorta in a freezing gel. • Cryofixation. • Storage of the components in a −80° C. freezer. Immunohistochemistry (HEGP) • The mouse primary antibody Ram 11 is used at a 1/100 dilution. • The secondary antibody (goat anti-mouse) is coupled to alkaline phosphatase. • The chromogen used is ADC (supplied by AbCys). • Fast re counterstaining is carried out.

| Compound | concentration from which significant inhibitory activity on MMP-2 [1] | IC50 [2] [µM] | IC50 [3] [µM] | SIGNIFICANT INHIBITORY EFFECT ([4]; concentration of peptide 10^−5M) [%] | CONCENTRATION OF PEPTIDE (with significant inhibitory effect) ([4]; tested at 10^−5, 10^−7 and 10^−9 M with respect to peptides) | ratio of the negative control to the highest concentration (fluorescence, FL1 525 nm) [5] | interaction with macrophages in atheroma plaques [6] | intracellular accumulation in macrophages [7] |
| --- | --- | --- | --- | --- | --- | --- | --- | --- |
| 4-Abz-Gly-Pro-Dleu-Dala-NHOH [PEPTIDE B] | ≥ 10^−5 M | 30 | 1 | 46 | 10^−5M |  |  |  |
| CCCCCCCCCCCCCCCC(=O)OC[C@H](COP(=O)(O)OC[C@H](N)C(=O)O)OC(=O)CCCCCNc1ccc([N+](=O)[O-])c2nonc12 [PS-NBD] |  |  |  |  |  | > 50 | interacts specifically with the macrophages located in the plaques | large intracellular accumulation |
